Measured values reported in US20180085341A1, “METHODS FOR TREATING CANCER” (BOSTON BIOMEDICAL, INC., priority 2015, published 2018).

How the values were obtained:
[1] = test system: cancer patients (CRC patients); assay: clinical trials, survival by Stat3/pStat3 expression level; format: in vivo, human; conditions: after treatment in clinical trials; at least in CRC patients
Text: Thus, the higher the level of pStat3 found in a cancer patient before treatment, at least in CRC patients, the higher the overall survival (OS) upon administering a treatment comprising a compound of formula (I).

[2] = test system: human lung cancer xenograft (A549); assay: human lung cancer xenograft (A549) model, metabolic tumor volume; format: in vivo, mice; conditions: 2-acetylnaphtho[2,3-b]furan-4,9-dione 100 mg/kg daily oral, paclitaxel 10.0 mg/kg q3d iv, relative to control, FIG. 7
Experimental: The effects of 2-acetylnaphtho[2,3-b]furan-4,9-dione was examined in a human lung cancer xenograft (A549) model. Human lung cancer cells were implanted in mice and the resulting tumors were allowed to grow to a pre-determined size. Mice were treated orally with vehicle, 2-acetylnaphtho[2,3-b]furan-4,9-dione (100 mg/kg, daily, oral), paclitaxel (10.0 mg/kg, q3d, iv), or the combination of 2-acetylnaphtho[2,3-b]furan-4,9-dione (100 mg/kg, daily, oral) and paclitaxel (10.0 mg/kg, q3d, iv). The tumor sizes were monitored.

p-Stat3 and β-catenin = assay: cancer stemness biomarkers in human colon cancer xenograft tumor (SW480), immunofluorescence; format: in vivo; conditions: SW480 xenograft in nude mice, e.g. 50 mg/kg BID oral gavage, tumors harvested 24 hours after first dosing, FIG. 5
Experimental: The effects of 2-acetylnaphtho[2,3-b]furan-4,9-dione, a compound of formula (I), on cancer stem cell markers was examined in cancer xenograft models with and without paclitaxel.
Human cancer cells were subcutaneously implanted into the right flank of 5-7 weeks old female athymic nude mice. When tumor size reached 200 mm^3, animals were treated with 2-acetylnaphtho[2,3-b]furan-4,9-dione, for example, at 50 mg/kg (BID) by oral gavage (n=3/group), paclitaxel, or a combination of 2-acetylnaphtho[2,3-b]furan-4,9-dione and paclitaxel. Tumors were harvested at 24 hours after first dosing.
The harvested tissues were fixed in 3.7% neutral buffered formaldehyde at 4° C. for overnight. The paraffin was embedded, cut to about 5 microns, and affixed onto positively-charged slides. After being baked and de-paraffinized, the slides with tumor or control tissues were incubated in 10 mM sodium citrate (pH 6.0) for 10 minutes. After antigen retrieval, slides were probed with primary antibodies P-STAT3 (rabbit, Cell Signaling, 1:100), β-Catenine (mouse, Santa Cruz, 1:400) at 4° C. overnight, and then Alexa Fluor fluorescent dyes-conjugated secondary antibodies (1:500, Invitrogen). After mounting, the slides with ProLong mounting medium with DAPI (Invitrogen) were examined under a Zeiss fluorescence microscope with 20× objective, and analyzed with Zen software.

[3] = open label phase Ib dose-escalation study, safety, tolerability and RP2D; format: in vivo, human; conditions: in combination with weekly paclitaxel
Experimental: In the open label phase lb dose-escalation study, the safety, tolerability and recommended phase 2 dose (RP2D) of 2-acetylnaphtho[2,3-b]furan-4,9-dione in combination with paclitaxel were assessed in adult patients with advanced solid tumors.
The effects of 2-acetylnaphtho[2,3-b]furan-4,9-dione in combination with paclitaxel were clinically evaluated. […] Phase II accrual to disease-specific cohorts included patients with advanced, heavily pre-treated metastatic non-small cell lung cancer (NSCLC).

Stat3 pathway = conditions: cellular; according to U.S. Pat. No. 8,877,803; cited from earlier work
[4] = test system: patients with advanced, previously treated pancreatic adenocarcinoma; conditions: weekly paclitaxel alone; Oettle et al, Anticancer Drugs 2000; cited from earlier work
pStat3 and β-catenin = assay: cancer stemness biomarkers in pancreatic adenocarcinoma cancer stem cells (Panc-1) in vitro; format: cell-based, human; conditions: Panc-1 cancer stem cells, FIG. 6

Compound	overall survival of patients with higher expression levels of Stat3 [1]	metabolic tumor volume [2]	expression of p-Stat3 and β-catenin stem cell markers (p-Stat3 and β-catenin)	recommended phase 2 dose of 2-acetylnaphtho[2,3-b]furan-4,9-dione [3]	IC50 (Stat3 pathway)	median overall survival (mOS) [4]	staining for stem cell markers (pStat3, β-catenin) (pStat3 and β-catenin)
CC(=O)c1cc2c(o1)C(=O)c1ccccc1C2=O [2-acetylnaphtho[2,3-b]furan-4,9-dione]	prolonged overall survival	reduced metabolic tumor volume relative to control	dramatically reduced expression	480 mg BID	~250 nM	–	–
CC(=O)O[C@H]1C(=O)[C@@]2(C)[C@H]([C@H](OC(=O)c3ccccc3)[C@]3(O)C[C@H](OC(=O)[C@H](O)[C@@H](NC(=O)c4ccccc4)c4ccccc4)C(C)=C1C3(C)C)[C@]1(OC(C)=O)CO[C@@H]1C[C@@H]2O [paclitaxel]	–	reduced metabolic tumor volume relative to control	–	–	–	about 17.5 weeks	enhanced staining
